According to patent US20130034522A1, “THERAPIES FOR TREATING HEPATITIS C VIRUS INFECTION” (priority 2010, published 2013):
Read-outs that look alike come from different tables or passages of the source.

Assays:
genotype 1 HCV = assay: Study VX-222-102 Part A: plasma HCV RNA reduction; assay type: in vivo, Hepatitis C virus
Method: (§1) In Part A of Study 102 subjects were randomized to VX-222 or placebo in a 6:2 (VX-222: placebo) allocation ratio to either Cohort 1, Cohort 2, Cohort 3, or Cohort 4. Subjects enrolled in Cohort 1, Cohort 2, and Cohort 3 were administered 250 mg, 500 mf, or 750 mg VX-222 or placebo twice daily (b.i.d.) for 3 days, respectively. Subjects enrolled in Cohort 4 were administered 1,500 mg VX-222 or placebo once daily (qd) for 3 days. Standard of care treatment, Peg-IFN-alpha-2a and RBV was offered to the subjects at the end of dosing in Part A for up to 48 weeks, if judged appropriate by the physician.
(§2) Additional results of Study VX-222-102 are described in FIGS. 2-8: Thirty-two treatment-naïve patients with chronic genotype 1 HCV infection were enrolled in the trial, including six patients in each dose group who received 250 mg of VX-222 BID, 500 mg of VX-222 BID, 750 mg of VX-222 BID, and 1,500 mg of VX-222 QD. Two patients received placebo in each of the four dosing groups, for a total of eight patients who received placebo. Part A of the trial was conducted at 10 centers in the United States, Canada and Argentina. Of the patients enrolled in the trial, 24 patients had genotype 1a HCV infection and eight patients had genotype 1b HCV infection. Six of the patients enrolled in the trial were African American, 25 were Caucasian and one was American Indian/Alaskan.
(§3) Multicenter, randomized, double-blinded, placebo-controlled, dose-ranging study • HCV genotype 1-infected patients • With no evidence of cirrhosis • ALT values <5×ULM • Plasma HCV RNA of >5 log10 IU/mL at screening • 4-arm comparative study (6:2 randomization VX-222: placebo) • Enrollment in this dosing—ranging study was sequential • 250 mg BID for 3 days • 500 mg BID for 3 days • 750 mg BID for 3 days • 1500 mg QD for 3 days.

[1] = Study VX-222-102 Part A: VX-222 for 3 days in HCV infected subjects (PK, safety); assay type: in vivo, human; settings: for AUC(0-t) / concentration at 12 h / Cmax / Tmax / half-life: human, in vivo; for AUC(0-t): read-out: AUC0-12 hr Geometric Mean; for concentration at 12 h: read-out: C12 Geometric Mean; for Cmax: read-out: Cmax Geometric Mean; for half-life: read-out: T1/2 Arithmetic Mean (converted)
Method: as §1, §2, §3

[2] = all four dose groups, blinded pooled data placebo or VX-222
[3] = 250 mg, 250 mg b.i.d., Day 1, HCV infected subjects
[4] = 250 mg, 250 mg b.i.d., Day 3, HCV infected subjects
[5] = 500 mg, 500 mg b.i.d., Day 1, HCV infected subjects
[6] = 500 mg, 500 mg b.i.d., Day 3, HCV infected subjects
[7] = 750 mg, 750 mg b.i.d., Day 1, HCV infected subjects
[8] = 750 mg, 750 mg b.i.d., Day 3, HCV infected subjects

CC1CCC(C(=O)N(c2cc(C#CC(C)(C)C)sc2C(=O)O)C2CCC(O)CC2)CC1 (stereo not drawn) [VX-222, 5-(3,3-Dimethylbut-1-ynyl)-3-[(trans-4-hydroxycyclohexyl)-(4-trans methylcyclohexanecarbonyl)amino]thiophene-2-carboxylic acid]
in vitro IC90 (in vitro IC90 of VX-222): 0.319 µg/mL | mean HCV RNA decline after three days of dosing (genotype 1 HCV; 250 mg BID): 3.1 log10 | Mean Viral Load Reduction at Day 4 (genotype 1 HCV; 250 mg b.i.d. for 3 days): −3.1 | mean HCV RNA decline after three days of dosing (genotype 1 HCV; 500 mg BID): 3.4 log10 | Mean Viral Load Reduction at Day 4 (genotype 1 HCV; 500 mg b.i.d. for 3 days): −3.4 | mean HCV RNA decline after three days of dosing (genotype 1 HCV; 750 mg BID): 3.2 log10 | Mean Viral Load Reduction at Day 4 (genotype 1 HCV; 750 mg b.i.d. for 3 days): −3.2 | mean HCV RNA decline after three days of dosing (genotype 1 HCV; 1,500 mg QD): 3.4 log10 | Mean Viral Load Reduction at Day 4 (genotype 1 HCV; 1,500 mg QD for 3 days): −3.4 | mean log HCV RNA decrease on Day 4 (genotype 1 HCV; Cohort 1, 250 mg b.i.d.): 3.1 log | mean log HCV RNA decrease on Day 4 (genotype 1 HCV; Cohort 2, 500 mg b.i.d.): 3.4 log | mean log HCV RNA decrease on Day 4 (genotype 1 HCV; Cohort 3, 750 mg b.i.d.): 3.2 log | mean log HCV RNA decrease on Day 4 (genotype 1 HCV; Cohort 4, 1,500 mg once a day): 3.6 log | mean reductions in plasma HCV RNA (genotype 1 HCV; across the four VX-222 dose groups): greater than 3 log10 | severe or serious events ([1]; 250, 500 or 750 mg b.i.d. for 3 days, genotype 1 chronic hepatitis C subjects): no reported severe or serious events | VX-222 exposures versus dose ([1]; 250-750 mg BID and 1500 mg QD, FIG. 7): increased with doses in an approximately proportional manner | severe or serious adverse events [1, 2]: no severe or serious adverse events were reported | tolerability [1, 2]: well-tolerated | AUC(0-t) [1, 3]: 11700 ng·h/mL | concentration at 12 h [1, 3]: 858 ng/mL | Cmax [1, 3]: 1810 ng/mL | Tmax ([1]; 250 mg, 250 mg b.i.d., Day 1, HCV infected subjects, read-out: tmax Median): 6 h | AUC(0-t) [1, 4]: 19500 ng·h/mL | concentration at 12 h [1, 4]: 728 ng/mL | Cmax [1, 4]: 2960 ng/mL | Tmax ([1]; 250 mg, 250 mg b.i.d., Day 3, HCV infected subjects, read-out: tmax Median): 4 h | AUC(0-t) [1, 5]: 22900 ng·h/mL | concentration at 12 h [1, 5]: 767 ng/mL | Cmax [1, 5]: 4360 ng/mL | Tmax ([1]; 500 mg, 500 mg b.i.d., Day 1, HCV infected subjects, read-out: tmax Median): 3 h | AUC(0-t) [1, 6]: 29800 ng·h/mL | concentration at 12 h [1, 6]: 858 ng/mL | Cmax [1, 6]: 5040 ng/mL | Tmax ([1]; 500 mg, 500 mg b.i.d., Day 3, HCV infected subjects, read-out: tmax Median): 2.5 h | AUC(0-t) [1, 7]: 43600 ng·h/mL | concentration at 12 h [1, 7]: 1690 ng/mL | Cmax [1, 7]: 6520 ng/mL | Tmax ([1]; 750 mg, 750 mg b.i.d., Day 1, HCV infected subjects, read-out: tmax Median): 3 h | AUC(0-t) [1, 8]: 63000 ng·h/mL | concentration at 12 h [1, 8]: 1680 ng/mL | Cmax [1, 8]: 10300 ng/mL | Tmax ([1]; 750 mg, 750 mg b.i.d., Day 3, HCV infected subjects, read-out: tmax Median): 2 h | Tmax ([1]; post dose, 250-750 mg BID and 1500 mg QD, FIG. 7, read-out: Tmax): 2 to 6 h | half-life ([1]; 250 mg b.i.d., Day 3, HCV infected subjects): 4.1 h | half-life ([1]; 500 mg b.i.d., Day 3, HCV infected subjects): 4 h | half-life ([1]; 750 mg b.i.d., Day 3, HCV infected subjects): 3.5 h
